≈ marks a conversion by molar mass, not a printed value. Where a name gives a salt, the structure may show the parent alone. Read-outs that look alike come from different tables or passages of the source.
Experiments:
Assay type in all cases: cell-based
E. cloacae P 99 = experiment: Antibacterial activity in vitro (MIC, standard agar method); settings: Enterobacter cloacae, P99, 20 h, read-out: Minimum inhibitory concentration (MIC)
Method: (§1) The minimum inhibitory concentration (MIC) of the substances investigated against gram-positive and gram-negative strains was determined using standard agar methods. The compounds were dissolved in a small amount of dimethyl sulphoxide, diluted with water and incorporated into liquified DST agar at 50° C. The thus-produced agar plates were used immediately thereafter in the test. The test concentrations lay between 128 and 0.06 μg/ml. The bacterial inoculation solutions were prepared from pre-cultures grown overnight, diluted and applied to the agar surface using an inoculation device (Denley A400). The plates were incubated at 35° C. for 20 hours. The MIC was determined as the lowest concentration of substance which prevented a visible growth. A scarcely visible turbidity and the growth of less than 5 colonies were ignored. The determinations of the antibacterial activities (Tab. 1) were carried out not only for the free bases, but also for the hydrochloride salt of each compound. The same values were obtained within experimental error.

E. coli 1346 = experiment: as above; settings: Escherichia coli, DST agar, 35° C., 20 hours, read-out: Minimum inhibitory concentration (MIC)
Method: as §1

E. coli 1527 E = experiment: as above; settings: Escherichia coli, read-out: Minimum inhibitory concentration (MIC)
Method: as §1

E. coli 159 R = experiment: as above; settings: Escherichia coli, read-out: Minimum inhibitory concentration (MIC)
Method: as §1

E. coli AS-19 = experiment: as above; settings: Escherichia coli, AS19, DST agar, 35° C., 20 hours, read-out: Minimum inhibitory concentration (MIC)
Method: as §1

E. coli B = experiment: as above; settings: Escherichia coli, DST agar, 35° C., 20 hours, read-out: Minimum inhibitory concentration (MIC)
Method: as §1

E. coli DC2 = experiment: as above; settings: Escherichia coli; E. coli DC2; DST agar, 35° C., 20 hours; read-out: Minimum inhibitory concentration (MIC)
Method: as §1

E. coli H560 = experiment: as above; settings: Escherichia coli, read-out: Minimum inhibitory concentration (MIC)
Method: as §1

[1] = tested on: E. coli K12 KEA-12 (GyrA); experiment: as above; settings: Escherichia coli, 20 h, read-out: Minimum inhibitory concentration (MIC)
Method: as §1

E. faecalis 6 = experiment: as above; settings: read-out: Minimum inhibitory concentration (MIC)
Method: as §1

P. aeroguinosa 3351 = experiment: as above; settings: read-out: Minimum inhibitory concentration (MIC)
Method: as §1

P. aeruginosa 799/61 = experiment: as above; settings: Pseudomonas aeruginosa, read-out: Minimum inhibitory concentration (MIC)
Method: as §1

S. aureus 101 = experiment: as above; settings: Staphylococcus aureus, DST agar, 35° C., 20 hours, read-out: Minimum inhibitory concentration (MIC)
Method: as §1

S. aureus 853 = experiment: as above; settings: Staphylococcus aureus, DST agar, 35° C., 20 hours, read-out: Minimum inhibitory concentration (MIC)
Method: as §1

S. haemolyticus 91 = experiment: as above; settings: Staphylococcus haemolyticus, DST agar, 35° C., 20 hours, read-out: Minimum inhibitory concentration (MIC)
Method: as §1

S. marcescens = experiment: as above; settings: Serratia marcescens, read-out: Minimum inhibitory concentration (MIC)
Method: as §1

Staph. aureus 25923 = experiment: as above; settings: Staphylococcus aureus, DST agar, 35° C., 20 hours, read-out: Minimum inhibitory concentration (MIC)
Method: as §1

Staph. aureus 887 = experiment: as above; settings: Staphylococcus aureus, DST agar, 35° C., 20 hours, read-out: Minimum inhibitory concentration (MIC)
Method: as §1

Staph. haemolyticus 75 = experiment: as above; settings: Staphylococcus haemolyticus, DST agar, 35° C., 20 hours, read-out: Minimum inhibitory concentration (MIC)
Method: as §1

[2] = tested on: Helicobacter pylori K 1585; experiment: Antibacterial activity against Helicobacter pylori in vitro (MIC, agar method); settings: K1585, H. pylori K 1585, Muller-Hinton agar, 5% sheep blood, incubation 4 days, read-out: Minimum inhibitory concentration (MIC)
Method: as §1
(§2) The antibacterial activities against Helicobacter pylori were carried out analogously to the method described above with the following variations: The compounds were incorporated into Muller-Hinton agar containing 5% sheep blood additive. The test concentrations lay between 10 and 0.1 μg/ml. […]

[3] = tested on: Helicobacter pylori PH 81; experiment: as above; settings: PH81, H. pylori PH 81, Muller-Hinton agar, 5% sheep blood, incubation 7 days, read-out: Minimum inhibitory concentration (MIC)
Method: as §1, §2

B. subtilis ATCC 585369 = experiment: Antibacterial activity in vitro (MIC, standard agar method); settings: Bacillus subtilis, ATCC585369, DST agar, 35° C., 20 hours, read-out: Minimum inhibitory concentration (MIC)
Method: as §1

E. coli 25922 = experiment: as above; settings: Escherichia coli; E. coli 25922; DST agar, 35° C., 20 hours; read-out: Minimum inhibitory concentration (MIC)
Method: as §1

K. oxytoca 1082E = experiment: as above; settings: Klebsiella oxytoca, DST agar, 35° C., 20 hours, read-out: Minimum inhibitory concentration (MIC)
Method: as §1

P. aeroginosa BA = experiment: as above; settings: DST agar, 35° C., 20 hours, read-out: Minimum inhibitory concentration (MIC)
Method: as §1

[4] = E. coli 159 R, DST agar, 35° C., 20 hours
[5] = Enterococcus faecalis, E. faecalis 6, DST agar, 35° C., 20 hours

| Compound | MIC (E. cloacae P 99) | MIC (E. coli 1346) | MIC (E. coli 159 R; [4]) | MIC (E. coli AS-19) | MIC (E. coli B) | MIC (E. coli DC2) | MIC [1] | MIC (E. faecalis 6; [5]) | MIC (S. aureus 101) | MIC (S. aureus 853) | MIC (S. haemolyticus 91) | MIC (Staph. aureus 25923) | MIC (Staph. aureus 887) | MIC (Staph. haemolyticus 75) | MIC [2] | MIC [3] | MIC (B. subtilis ATCC 585369) | MIC (E. coli 25922) | MIC (E. coli H560; H560, 20 h) | MIC (K. oxytoca 1082E) | further results |
| --- | --- | --- | --- | --- | --- | --- | --- | --- | --- | --- | --- | --- | --- | --- | --- | --- | --- | --- | --- | --- | --- |
| Oc1ccc(-c2nc3ccc(-c4ccc5nc(-c6ccc(O)c(F)c6)[nH]c5c4)cc3[nH]2)cc1F [Example 1, 2-Fluoro-4-[2'-(3-fluoro-4-hydroxy-phenyl)-6,6'-dibenzimidazol-2-yl]-phenol] | > 64 µg/mL | 32 µg/mL (≈ 70.4 µM) | 8 µg/mL (≈ 17.6 µM) | > 64 µg/mL | > 64 µg/mL | > 64 µg/mL | > 64 µg/mL | 2 µg/mL (≈ 4.4 µM) | 8 µg/mL (≈ 17.6 µM) | 16 µg/mL (≈ 35.2 µM) | 8 µg/mL (≈ 17.6 µM) | 8 µg/mL (≈ 17.6 µM) | 16 µg/mL (≈ 35.2 µM) | 0.25 µg/mL (≈ 0.55 µM) |  |  |  |  |  |  | MIC (E. coli 1527 E; E. coli 1527 E, DST agar, 35° C., 20 hours): > 64 µg/mL; MIC (E. coli H560; E. coli H560, DST agar, 35° C., 20 hours): 8 µg/mL (≈ 17.6 µM); MIC (P. aeroguinosa 3351; P. aeroguinosa 3351, DST agar, 35° C., 20 hours): > 64 µg/mL; MIC (P. aeruginosa 799/61; P. aeruginosa 799/61, DST agar, 35° C., 20 hours): > 64 µg/mL; MIC (S. marcescens; S. marcescens, DST agar, 35° C., 20 hours): > 64 µg/mL |
| Oc1ccc(-c2nc3ccc(-c4ccc5nc(-c6ccc(O)cc6)[nH]c5c4)cc3[nH]2)cc1 [Example 5, 4-[2'-(4-Hydroxy-phenyl)-6,6'-dibenzimidazol-2-yl)-phenol hydrochloride] | > 128 µg/mL | ≤ 0.12 µg/mL | > 4 µg/mL | 0.25 µg/mL | ≤ 0.12 µg/mL | ≤ 0.12 µg/mL | > 128 µg/mL |  | > 32 µg/mL | 0.25 µg/mL | 0.12 µg/mL | ≤ 0.12 µg/mL | ≤ 0.12 µg/mL | ≤ 0.06 µg/mL | 1 µg/mL | < 0.1 µg/mL | ≤ 0.12 µg/mL | > 128 µg/mL | > 128 µg/mL | > 128 µg/mL | MIC (E. coli 1527 E; 1527E, 20 h): > 128 µg/mL; MIC (E. faecalis 6; Enterococcus faecalis, 6, 20 h): ≤ 0.06 µg/mL; MIC (P. aeroginosa BA): > 128 µg/mL; MIC (P. aeroguinosa 3351; 20 h): > 128 µg/mL; MIC (P. aeruginosa 799/61; 799/61, 20 h): > 128 µg/mL; MIC (S. marcescens; 20 h): > 128 µg/mL |
| CCOc1ccc(-c2nc3ccc(-c4ccc5nc(-c6ccc(O)cc6)[nH]c5c4)cc3[nH]2)cc1 [Example 11, 4-[2'-(4-Ethoxy-phenyl)-6,6'-dibenzimidazol-2-yl]-phenol] | > 128 µg/mL | 0.25 µg/mL (≈ 0.56 µM) |  | 0.5 µg/mL (≈ 1.12 µM) | 0.5 µg/mL (≈ 1.12 µM) | 1 µg/mL (≈ 2.24 µM) | > 128 µg/mL | 0.5 µg/mL (≈ 1.12 µM) | 0.5 µg/mL (≈ 1.12 µM) | 0.25 µg/mL (≈ 0.56 µM) |  | 0.25 µg/mL (≈ 0.56 µM) | 0.25 µg/mL (≈ 0.56 µM) | 0.12 µg/mL (≈ 0.269 µM) | 1 µg/mL (≈ 2.24 µM) | < 0.1 µg/mL | 0.25 µg/mL (≈ 0.56 µM) | > 128 µg/mL | > 128 µg/mL | > 128 µg/mL | MIC (E. coli 159 R; 159R, 20 h): > 128 µg/mL; MIC (P. aeroginosa BA): > 128 µg/mL; MIC (P. aeroguinosa 3351; 20 h): > 128 µg/mL; MIC (P. aeruginosa 799/61; 799/61, 20 h): > 128 µg/mL |

— US5824698A, “Antibacterial dibenzimidazole derivatives” (priority 1994, dated 1998)
